System: patients after acute myocardial infarction
Experiment: Life quality, Seattle Angina Questionnaire (SAQ), same clinical trial
Format: in vivo, human
Conditions: PP
From the text: 3508 patients who were in accordance with the diagnostic standards of AMI for 28 days to 2 years and differentiated as Qi deficiency and blood stagnation syndrome by TCM were studied. 0.5 g Chinese medicine composition prepared by the method of EXAMPLE 1 (Coded as QSYQ) was administrated half an hour after meal, 3 times per day.
There were 19 questions in the Seattle angina questionnaire (SAQ), including 5 parts: physical limitation (PL), anginal stability (AS), anginal frequency (AF), treatment satisfaction (TS) and disease perception (DP). After being given necessary explanation by doctors, the questions were answered independently by patients.
They included the overall survival time, angina pectoris score, TCM symptom score and life quality score, where angina pectoris score, TCM symptom score and life quality score were evaluated at randomization, in 1st, 3rd, 6th, 9th, 12th month after treatment and 18th month after follow-up.
All evaluation results of SAQ were described during the period of observation, and Wilcoxon rank sum test was used for inter-group comparison.
The evaluation results in the SAQ were depicted in different observations, and inter-group comparison was tested by Wilcoxon Rank-sum test.

CC(=O)Oc1ccccc1C(=O)O [Control group, aspirine]
11th question: Often worried, patients (%) (3 months after treatment): (19.03%)
11th question: Seldom worried, patients (%) (3 months after treatment): (30.12%)
SAQ 4th question, 1-2 times per week: % of patients (3 months after treatment): (17.09%)
SAQ 4th question, 1-2 times per week: number of patients (3 months after treatment): 251
SAQ 4th question, 1-3 times per day: % of patients (3 months after treatment): (5.31%)
SAQ 4th question, 1-3 times per day: number of patients (3 months after treatment): 78
SAQ 4th question, <1 time per week: % of patients (3 months after treatment): (10.35%)
SAQ 4th question, <1 time per week: number of patients (3 months after treatment): 152
SAQ 4th question, Not used: % of patients (3 months after treatment): (56.71%)
SAQ 4th question, Not used: number of patients (3 months after treatment): 833
SAQ 4th question, ≧3 times per week: % of patients (3 months after treatment): (10.55%)
SAQ 4th question, ≧3 times per week: number of patients (3 months after treatment): 155
SAQ 4th question, ≧4 times per day: % of patients (3 months after treatment): (0.00%)
SAQ 4th question, ≧4 times per day: number of patients (3 months after treatment): 0
SAQ 5th question, Few: % of patients (3 months after treatment): (24.57%)
SAQ 5th question, Few: number of patients (3 months after treatment): 361
SAQ 5th question, Mild: % of patients (3 months after treatment): (26.14%)
SAQ 5th question, Mild: number of patients (3 months after treatment): 384
SAQ 5th question, Moderate: % of patients (3 months after treatment): (16.13%)
SAQ 5th question, Moderate: number of patients (3 months after treatment): 237
SAQ 5th question, None: % of patients (3 months after treatment): (27.16%)
SAQ 5th question, None: number of patients (3 months after treatment): 399
SAQ 5th question, Not medicated by doctors: % of patients (3 months after treatment): (4.56%)
SAQ 5th question, Not medicated by doctors: number of patients (3 months after treatment): 67
SAQ 5th question, Severe: % of patients (3 months after treatment): (1.43%)
SAQ 5th question, Severe: number of patients (3 months after treatment): 21
SAQ 6th question, Dissatisfied: % of patients (3 months after treatment): (0.07%)
SAQ 6th question, Dissatisfied: number of patients (3 months after treatment): 1
SAQ 6th question, Highly satisfied: % of patients (3 months after treatment): (20.04%)
SAQ 6th question, Highly satisfied: number of patients (3 months after treatment): 295
SAQ 6th question, Mostly dissatisfied: % of patients (3 months after treatment): (2.51%)
SAQ 6th question, Mostly dissatisfied: number of patients (3 months after treatment): 37
SAQ 6th question, Mostly satisfied: % of patients (3 months after treatment): (51.09%)
SAQ 6th question, Mostly satisfied: number of patients (3 months after treatment): 752
SAQ 6th question, Partly satisfied: % of patients (3 months after treatment): (26.29%)
SAQ 6th question, Partly satisfied: number of patients (3 months after treatment): 387
SAQ 7th question, Dissatisfied: % of patients (3 months after treatment): (0.07%)
SAQ 7th question, Dissatisfied: number of patients (3 months after treatment): 1
SAQ 7th question, Highly satisfied: % of patients (3 months after treatment): (23.06%)
SAQ 7th question, Highly satisfied: number of patients (3 months after treatment): 339
SAQ 7th question, Mostly dissatisfied: % of patients (3 months after treatment): (1.84%)
SAQ 7th question, Mostly dissatisfied: number of patients (3 months after treatment): 27
SAQ 7th question, Mostly satisfied: % of patients (3 months after treatment): (53.47%)
SAQ 7th question, Mostly satisfied: number of patients (3 months after treatment): 786
SAQ 7th question, Partly satisfied: % of patients (3 months after treatment): (21.56%)
SAQ 7th question, Partly satisfied: number of patients (3 months after treatment): 317
SAQ Question 1-1 Mildly limited, number of patients (3 months after treatment): 22
SAQ Question 1-1 Mildly limited, percent of patients (3 months after treatment): (1.50%)
SAQ Question 1-1 Moderately limited, number of patients (3 months after treatment): 6
SAQ Question 1-1 Moderately limited, percent of patients (3 months after treatment): (0.41%)
SAQ Question 1-1 Not limited, number of patients (3 months after treatment): 1381
SAQ Question 1-1 Not limited, percent of patients (3 months after treatment): (93.95%)
SAQ Question 1-1 Other reasons, number of patients (3 months after treatment): 3
SAQ Question 1-1 Other reasons, percent of patients (3 months after treatment): (0.20%)
SAQ Question 1-1 Severely limited, number of patients (3 months after treatment): 0
SAQ Question 1-1 Severely limited, percent of patients (3 months after treatment): (0.00%)
SAQ Question 1-1 Slightly limited, number of patients (3 months after treatment): 58
SAQ Question 1-1 Slightly limited, percent of patients (3 months after treatment): (3.95%)
SAQ Question 1-2 Mildly limited, number of patients (3 months after treatment): 19
SAQ Question 1-2 Mildly limited, percent of patients (3 months after treatment): (1.29%)
SAQ Question 1-2 Moderately limited, number of patients (3 months after treatment): 8
SAQ Question 1-2 Moderately limited, percent of patients (3 months after treatment): (0.54%)
SAQ Question 1-2 Not limited, number of patients (3 months after treatment): 1353
SAQ Question 1-2 Not limited, percent of patients (3 months after treatment): (92.04%)
SAQ Question 1-2 Other reasons, number of patients (3 months after treatment): 6
SAQ Question 1-2 Other reasons, percent of patients (3 months after treatment): (0.41%)
SAQ Question 1-2 Severely limited, number of patients (3 months after treatment): 0
SAQ Question 1-2 Severely limited, percent of patients (3 months after treatment): (0.00%)
SAQ Question 1-2 Slightly limited, number of patients (3 months after treatment): 84
SAQ Question 1-2 Slightly limited, percent of patients (3 months after treatment): (5.71%)
SAQ Question 1-6: Mildly limited, patients (%) (3 months after treatment): (17.92%)
SAQ Question 1-6: Moderately limited, patients (%) (3 months after treatment): (13.89%)
SAQ Question 1-6: Not limited, patients (%) (3 months after treatment): (30.92%)
SAQ Question 1-6: Other reasons, patients (%) (3 months after treatment): (0.96%)
SAQ Question 1-6: Severely limited, patients (%) (3 months after treatment): (3.83%)
SAQ Question 1-6: Slightly limited, patients (%) (3 months after treatment): (32.49%)
SAQ Question 1-7: Mildly limited, patients (%) (3 months after treatment): (23.81%)
SAQ Question 1-7: Moserately limited, patients (%) (3 months after treatment): (14.91%)
SAQ Question 1-7: Not limited, patients (%) (3 months after treatment): (13.46%)
SAQ Question 1-7: Other reasons, patients (%) (3 months after treatment): (3.11%)
SAQ Question 1-7: Severely limited, patients (%) (3 months after treatment): (16.01%)
SAQ Question 1-7: Slightly limited, patients (%) (3 months after treatment): (28.71%)
SAQ Question 1-8: Mildly limited, patients (%) (3 months after treatment): (25.82%)
SAQ Question 1-8: Moderately limited, patients (%) (3 months after treatment): (17.90%)
SAQ Question 1-8: Not limited, patients (%) (3 months after treatment): (10.48%)
SAQ Question 1-8: Other reasons, patients (%) (3 months after treatment): (2.91%)
SAQ Question 1-8: Severely limieted, patients (%) (3 months after treatment): (21.30%)
SAQ Question 1-8: Slightly limited, patients (%) (3 months after treatment): (21.58%)
8th question: Dissatisfied, patients (%) (6 months after treatment): (0.07%)
8th question: Highly satisfied, patients (%) (6 months after treatment): (20.69%)
8th question: Mostly satisfied, patients (%) (6 months after treatment): (56.70%)
8th question: Partly satisfied, patients (%) (6 months after treatment): (20.96%)
9th question: Few, patients (%) (6 months after treatment): (34.99%)
9th question: Mild, patients (%) (6 months after treatment): (34.44%)
9th question: Moderate, patients (%) (6 months after treatment): (10.54%)
9th question: Severe, patients (%) (6 months after treatment): (0.21%)
9th question: Uneffective, patients (%) (6 months after treatment): (19.83%)
10th question: Dissatisfied, patients (%) (6 months after treatment): (20.36%)
10th question: Highly satisfied, patients (%) (6 months after treatment): (4.88%)
10th question: Mostly dissatisfied, patients (%) (6 months after treatment): (21.32%)
10th question: Mostly satisfied, patients (%) (6 months after treatment): (26.34%)
10th question: Partly satisfied, patients (%) (6 months after treatment): (27.10%)
11th question: Continuously worried, patients (%) (6 months after treatment): (3.44%)
11th question: No worried, patients (%) (6 months after treatment): (4.81%)
11th question: Occasionally worried, patients (%) (6 months after treatment): (42.68%)
11th question: Often worried, patients (%) (6 months after treatment): (14.57%)
11th question: Seldom worried, patients (%) (6 months after treatment): (34.50%)
SAQ 4th question, 1-2 times per week: % of patients (6 months after treatment): (18.08%)
SAQ 4th question, 1-2 times per week: number of patients (6 months after treatment): 263
SAQ 4th question, 1-3 times per day: % of patients (6 months after treatment): (3.85%)
SAQ 4th question, 1-3 times per day: number of patients (6 months after treatment): 56
SAQ 4th question, <1 time per week: % of patients (6 months after treatment): (11.34%)
SAQ 4th question, <1 time per week: number of patients (6 months after treatment): 165
SAQ 4th question, Not used: % of patients (6 months after treatment): (60.14%)
SAQ 4th question, Not used: number of patients (6 months after treatment): 875
SAQ 4th question, ≧3 times per week: % of patients (6 months after treatment): (6.53%)
SAQ 4th question, ≧3 times per week: number of patients (6 months after treatment): 95
SAQ 4th question, ≧4 times per day: % of patients (6 months after treatment): (0.07%)
SAQ 4th question, ≧4 times per day: number of patients (6 months after treatment): 1
SAQ 5th question, 1-2 times per week: % of patients (6 months after treatment): (27.01%)
SAQ 5th question, 1-2 times per week: number of patients (6 months after treatment): 393
SAQ 5th question, 1-3 times per day: % of patients (6 months after treatment): (11.00%)
SAQ 5th question, 1-3 times per day: number of patients (6 months after treatment): 160
SAQ 5th question, <1 time per week: % of patients (6 months after treatment): (28.18%)
SAQ 5th question, <1 time per week: number of patients (6 months after treatment): 410
SAQ 5th question, No onset: % of patients (6 months after treatment): (4.47%)
SAQ 5th question, No onset: number of patients (6 months after treatment): 65
SAQ 5th question, ≧3 times per week: % of patients (6 months after treatment): (28.93%)
SAQ 5th question, ≧3 times per week: number of patients (6 months after treatment): 421
SAQ 5th question, ≧4 times per day: % of patients (6 months after treatment): (0.41%)
SAQ 5th question, ≧4 times per day: number of patients (6 months after treatment): 6
SAQ 6th question, Dissatisfied: % of patients (6 months after treatment): (0.00%)
SAQ 6th question, Dissatisfied: number of patients (6 months after treatment): 0
SAQ 6th question, Highly satisfied: % of patients (6 months after treatment): (22.27%)
SAQ 6th question, Highly satisfied: number of patients (6 months after treatment): 324
SAQ 6th question, Mostly dissatisfied: % of patients (6 months after treatment): (1.65%)
SAQ 6th question, Mostly dissatisfied: number of patients (6 months after treatment): 24
SAQ 6th question, Mostly satisfied: % of patients (6 months after treatment): (55.95%)
SAQ 6th question, Mostly satisfied: number of patients (6 months after treatment): 814
SAQ 6th question, Partly satisfied: % of patients (6 months after treatment): (20.14%)
SAQ 6th question, Partly satisfied: number of patients (6 months after treatment): 293
SAQ 7th question, Dissatisfied: % of patients (6 months after treatment): (0.07%)
SAQ 7th question, Dissatisfied: number of patients (6 months after treatment): 1
SAQ 7th question, Highly satisfied: % of patients (6 months after treatment): (25.67%)
SAQ 7th question, Highly satisfied: number of patients (6 months after treatment): 373
SAQ 7th question, Mostly dissatisfied: % of patients (6 months after treatment): (1.10%)
SAQ 7th question, Mostly dissatisfied: number of patients (6 months after treatment): 16
SAQ 7th question, Mostly satisfied: % of patients (6 months after treatment): (58.22%)
SAQ 7th question, Mostly satisfied: number of patients (6 months after treatment): 846
SAQ 7th question, Partly satisfied: % of patients (6 months after treatment): (14.93%)
SAQ 7th question, Partly satisfied: number of patients (6 months after treatment): 217
SAQ Question 1-1 Mildly limited, number of patients (6 months after treatment): 22
SAQ Question 1-1 Mildly limited, percent of patients (6 months after treatment): (1.52%)
SAQ Question 1-1 Moderately limited, number of patients (6 months after treatment): 4

Reference: US9211310B2, “Use of a Chinese medicine composition in preparing medicaments for treating secondary prevention of myocardial infarction” (TASLY PHARMACEUTICAL GROUP CO., LTD, priority 2010, dated 2015)
